Tests used:
Assay type in all cases: in vivo
[1] = tested on: redroot pigweed (Amaranthus retroflexus, AMARE); test: Pre-emerge test, greenhouse herbicide activity screening; conditions: for Pre-emerge herbicidal activity, phytotoxicity rating AMARE: rating scale 0-100, 14 days after application; for phytotoxicity rating AMARE: pre-emerge, 14 days after application, rating scale 0-100
How it was run: (§1)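 Rating: 0–100 visual injury, 14 DAA. Application: acetone, 187 l/ha, 15–1000 g ai/ha, flat-fan track sprayer with nozzle 40–45 cm above soil or canopy. Post-emerge runs used 0.25% v/v surfactant on 2–3 leaf plants.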

[2] = tested on: upland rice (Oryza sp., var. Tebonnet, RICE); test: Pre-emerge test, crop safety; conditions: for Pre-emerge phytotoxicity rating, crop damage RICE: rating scale 0-100, 14 days after application; for phytotoxicity rating RICE: pre-emerge, 14 days after application, rating scale 0-100
How it was run: (§2)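 Herbicidal damage is scored 0 (none) to 100 (complete plant death) two weeks after a simulated field spray. Rates span 15–1000 g ai/ha, delivered in acetone at 187 l/ha. For post-emergence treatments, plants have 2–3 leaves and the spray carries 0.25% v/v non-ionic surfactant.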

[3] = tested on: field corn (Zea mays L., var. Dekalb 535, CORN); test: Pre-emerge test, crop safety; conditions: for Pre-emerge phytotoxicity rating, crop damage CORN: rating scale 0-100, 14 days after application; for phytotoxicity rating CORN: pre-emerge, 14 days after application, rating scale 0-100
How it was run: as §2

[4] = tested on: green foxtail (Setaria viridis, SETVI); test: Post-emerge test, greenhouse herbicide activity screening; conditions: rating scale 0-100 (0 no damage, 100 complete death), 14 days after application
How it was run: as §1

[5] = tested on: ivyleaf morningglory (Ipomoea hederacea, IPOHE); test: as above; conditions: rating scale 0-100 (0 no damage, 100 complete death), 14 days after application
How it was run: as §1

[6] = tested on: velvetleaf (Abutilon theophrasti, ABUTH); test: as above; conditions: rating scale 0-100 (0 no damage, 100 complete death), 14 days after application
How it was run: as §1

[7] = tested on: large crabgrass (Digitaria sanguinalis, DIGSA); test: as above; conditions: rating scale 0-100 (0 no damage, 100 complete death), 14 days after application
How it was run: as §1

[8] = tested on: johnsongrass (Sorghum halepense, SORHA); test: as above; conditions: rating scale 0-100 (0 no damage, 100 complete death), 14 days after application
How it was run: as §1

[9] = tested on: common ragweed (Ambrosia artemisizfolia L., AMBEL); test: as above; conditions: rating scale 0-100 (0 no damage, 100 complete death), 14 days after application
How it was run: as §1

[10] = tested on: redroot pigweed (Amaranthus retroflexus, AMARE); test: as above; conditions: rating scale 0-100 (0 no damage, 100 complete death), 14 days after application
How it was run: as §1

[11] = tested on: lambsquarters (Chenopodium album, CHEAL); test: as above; conditions: rating scale 0-100 (0 no damage, 100 complete death), 14 days after application
How it was run: as §1

[12] = tested on: barnyardgrass (Echinochloa crus-galli, ECHCG); test: as above; conditions: rating scale 0-100 (0 no damage, 100 complete death), 14 days after application
How it was run: as §1

[13] = tested on: sicklepod (Cassia obtusifolia, CASOB); test: as above; conditions: rating scale 0-100 (0 no damage, 100 complete death), 14 days after application
How it was run: as §1

[14] = tested on: upland rice (Oryza sp., var. Tebonnet, RICE); test: Post-emerge test, crop safety; conditions: rating scale 0-100 (0 no damage, 100 complete death), 14 days after application
How it was run: (§3)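 Compounds in acetone were track-sprayed at 15-1000 g ai/ha (187 l/ha) on sandy loam pots: pre-emerge one day after seeding, post-emerge at 2-3 leaf stage with 0.25% v/v non-ionic surfactant. Phytotoxicity was rated 14 days later on a 0 (no damage) to 100 (complete death) scale.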

[15] = tested on: field corn (Zea mays L., var. Dekalb 535, CORN); test: Post-emerge test, crop safety; conditions: rating scale 0-100 (0 no damage, 100 complete death), 14 days after application
How it was run: as §3

[16] = tested on: green foxtail (Setaria viridis, SETVI); test: Pre-emerge test, greenhouse herbicide activity screening; conditions: for Pre-emerge herbicidal activity, phytotoxicity rating SETVI: rating scale 0-100, 14 days after application; for phytotoxicity rating SETVI: pre-emerge, 14 days after application, rating scale 0-100
How it was run: as §3

[17] = tested on: ivyleaf morningglory (Ipomoea hederacea, IPOHE); test: as above; conditions: for Pre-emerge herbicidal activity, phytotoxicity rating IPOHE: rating scale 0-100, 14 days after application; for phytotoxicity rating IPOHE: pre-emerge, 14 days after application, rating scale 0-100
How it was run: as §3

[18] = tested on: velvetleaf (Abutilon theophrasti, ABUTH); test: as above; conditions: for Pre-emerge herbicidal activity, phytotoxicity rating ABUTH: rating scale 0-100, 14 days after application; for phytotoxicity rating ABUTH: pre-emerge, 14 days after application, rating scale 0-100
How it was run: as §3

[19] = tested on: large crabgrass (Digitaria sanguinalis, DIGSA); test: as above; conditions: for Pre-emerge herbicidal activity, phytotoxicity rating DIGSA: rating scale 0-100, 14 days after application; for phytotoxicity rating DIGSA: pre-emerge, 14 days after application, rating scale 0-100
How it was run: as §3

[20] = tested on: johnsongrass (Sorghum halepense, SORHA); test: as above; conditions: for Pre-emerge herbicidal activity, phytotoxicity rating SORHA: rating scale 0-100, 14 days after application; for phytotoxicity rating SORHA: pre-emerge, 14 days after application, rating scale 0-100
How it was run: as §3

[21] = tested on: lambsquarters (Chenopodium album, CHEAL); test: as above; conditions: for Pre-emerge herbicidal activity, phytotoxicity rating CHEAL: rating scale 0-100, 14 days after application; for phytotoxicity rating CHEAL: pre-emerge, 14 days after application, rating scale 0-100
How it was run: as §3

[22] = tested on: barnyardgrass (Echinochloa crus-galli, ECHCG); test: as above; conditions: for Pre-emerge herbicidal activity, phytotoxicity rating ECHCG: rating scale 0-100, 14 days after application; for phytotoxicity rating ECHCG: pre-emerge, 14 days after application, rating scale 0-100
How it was run: as §3

[23] = tested on: sicklepod (Cassia obtusifolia, CASOB); test: as above; conditions: for Pre-emerge herbicidal activity, phytotoxicity rating CASOB: rating scale 0-100, 14 days after application; for phytotoxicity rating CASOB: pre-emerge, 14 days after application, rating scale 0-100
How it was run: as §3

COc1c(Cl)cc(F)c(-n2c(=O)cc(C(F)(F)F)n(C)c2=O)c1CC(Cl)C(=O)OCC(F)(F)C(F)F (centres unmarked) [14-22]
10: Pre-emerge phytotoxicity rating, crop damage RICE ([2]; 250 g ai/ha) | Post-emerge Herbicidal Activity, phytotoxicity rating IPOHE ([5]; Rate 63 g ai/ha) | Post-emerge phytotoxicity rating RICE (crop damage) ([14]; Rate 250 g ai/ha) | Post-emerge phytotoxicity rating CORN (crop damage) ([15]; Rate 63 g ai/ha)
95: Post-emerge Herbicidal Activity, phytotoxicity rating DIGSA ([7]; Rate 250 g ai/ha)
20: Pre-emerge herbicidal activity, phytotoxicity rating CHEAL ([21]; 63 g ai/ha)
50: Post-emerge Herbicidal Activity, phytotoxicity rating AMARE ([10]; Rate 63 g ai/ha) | Post-emerge Herbicidal Activity, phytotoxicity rating CHEAL ([11]; Rate 63 g ai/ha) | Post-emerge Herbicidal Activity, phytotoxicity rating CASOB ([13]; Rate 250 g ai/ha) | Post-emerge phytotoxicity rating CORN (crop damage) ([15]; Rate 250 g ai/ha) | Pre-emerge herbicidal activity, phytotoxicity rating DIGSA ([19]; 250 g ai/ha)
80: Post-emerge Herbicidal Activity, phytotoxicity rating IPOHE ([5]; Rate 250 g ai/ha) | Post-emerge Herbicidal Activity, phytotoxicity rating DIGSA ([7]; Rate 63 g ai/ha)
30: Post-emerge Herbicidal Activity, phytotoxicity rating SETVI ([4]; Rate 63 g ai/ha) | Post-emerge Herbicidal Activity, phytotoxicity rating ABUTH ([6]; Rate 63 g ai/ha)
90: Post-emerge Herbicidal Activity, phytotoxicity rating CHEAL ([11]; Rate 250 g ai/ha) | Pre-emerge herbicidal activity, phytotoxicity rating CHEAL ([21]; 250 g ai/ha)
40: Post-emerge Herbicidal Activity, phytotoxicity rating SORHA ([8]; Rate 63 g ai/ha)
60: Post-emerge Herbicidal Activity, phytotoxicity rating SETVI ([4]; Rate 250 g ai/ha) | Post-emerge Herbicidal Activity, phytotoxicity rating SORHA ([8]; Rate 250 g ai/ha)
0: Pre-emerge phytotoxicity rating, crop damage RICE ([2]; 63 g ai/ha) | Pre-emerge phytotoxicity rating, crop damage CORN ([3]; 63 g ai/ha) | Pre-emerge phytotoxicity rating, crop damage CORN ([3]; 250 g ai/ha) | Post-emerge Herbicidal Activity, phytotoxicity rating CASOB ([13]; Rate 63 g ai/ha) | Post-emerge phytotoxicity rating RICE (crop damage) ([14]; Rate 63 g ai/ha) | Pre-emerge herbicidal activity, phytotoxicity rating SETVI ([16]; 63 g ai/ha) | Pre-emerge herbicidal activity, phytotoxicity rating SETVI ([16]; 250 g ai/ha) | Pre-emerge herbicidal activity, phytotoxicity rating IPOHE ([17]; 63 g ai/ha) | Pre-emerge herbicidal activity, phytotoxicity rating IPOHE ([17]; 250 g ai/ha) | Pre-emerge herbicidal activity, phytotoxicity rating ABUTH ([18]; 63 g ai/ha) | Pre-emerge herbicidal activity, phytotoxicity rating DIGSA ([19]; 63 g ai/ha) | Pre-emerge herbicidal activity, phytotoxicity rating SORHA ([20]; 63 g ai/ha) | Pre-emerge herbicidal activity, phytotoxicity rating SORHA ([20]; 250 g ai/ha) | Pre-emerge herbicidal activity, phytotoxicity rating ECHCG ([22]; 63 g ai/ha) | Pre-emerge herbicidal activity, phytotoxicity rating ECHCG ([22]; 250 g ai/ha) | Pre-emerge herbicidal activity, phytotoxicity rating CASOB ([23]; 63 g ai/ha) | Pre-emerge herbicidal activity, phytotoxicity rating CASOB ([23]; 250 g ai/ha)
100: Pre-emerge herbicidal activity, phytotoxicity rating AMARE ([1]; 63 g ai/ha) | Pre-emerge herbicidal activity, phytotoxicity rating AMARE ([1]; 250 g ai/ha) | Post-emerge Herbicidal Activity, phytotoxicity rating ABUTH ([6]; Rate 250 g ai/ha) | Post-emerge Herbicidal Activity, phytotoxicity rating AMBEL ([9]; Rate 63 g ai/ha) | Post-emerge Herbicidal Activity, phytotoxicity rating AMBEL ([9]; Rate 250 g ai/ha) | Post-emerge Herbicidal Activity, phytotoxicity rating AMARE ([10]; Rate 250 g ai/ha) | Post-emerge Herbicidal Activity, phytotoxicity rating ECHCG ([12]; Rate 63 g ai/ha) | Post-emerge Herbicidal Activity, phytotoxicity rating ECHCG ([12]; Rate 250 g ai/ha)
70: Pre-emerge herbicidal activity, phytotoxicity rating ABUTH ([18]; 250 g ai/ha)

CCOC(=O)C(Cl)(C#N)Cc1c(OC)c(Cl)cc(F)c1-n1c(=O)cc(C(F)(F)F)n(C)c1=O (centres unmarked) [14-51]
20: Post-emerge Herbicidal Activity, phytotoxicity rating AMBEL ([9]; Rate 250 g ai/ha) | Post-emerge Herbicidal Activity, phytotoxicity rating ECHCG ([12]; Rate 250 g ai/ha)
10: Post-emerge Herbicidal Activity, phytotoxicity rating CHEAL ([11]; Rate 250 g ai/ha) | Post-emerge Herbicidal Activity, phytotoxicity rating ECHCG ([12]; Rate 63 g ai/ha) | phytotoxicity rating ABUTH ([18]; 63 g ai/ha)
100: phytotoxicity rating AMARE ([1]; 63 g ai/ha) | phytotoxicity rating AMARE ([1]; 250 g ai/ha) | phytotoxicity rating ABUTH ([18]; 250 g ai/ha) | phytotoxicity rating CHEAL ([21]; 250 g ai/ha)
50: Post-emerge Herbicidal Activity, phytotoxicity rating ABUTH ([6]; Rate 250 g ai/ha) | phytotoxicity rating IPOHE ([17]; 250 g ai/ha)
0: phytotoxicity rating RICE ([2]; 63 g ai/ha) | phytotoxicity rating RICE ([2]; 250 g ai/ha) | phytotoxicity rating CORN ([3]; 63 g ai/ha) | phytotoxicity rating CORN ([3]; 250 g ai/ha) | Post-emerge Herbicidal Activity, phytotoxicity rating SETVI ([4]; Rate 63 g ai/ha) | Post-emerge Herbicidal Activity, phytotoxicity rating SETVI ([4]; Rate 250 g ai/ha) | Post-emerge Herbicidal Activity, phytotoxicity rating IPOHE ([5]; Rate 63 g ai/ha) | Post-emerge Herbicidal Activity, phytotoxicity rating ABUTH ([6]; Rate 63 g ai/ha) | Post-emerge Herbicidal Activity, phytotoxicity rating DIGSA ([7]; Rate 63 g ai/ha) | Post-emerge Herbicidal Activity, phytotoxicity rating DIGSA ([7]; Rate 250 g ai/ha) | Post-emerge Herbicidal Activity, phytotoxicity rating SORHA ([8]; Rate 63 g ai/ha) | Post-emerge Herbicidal Activity, phytotoxicity rating SORHA ([8]; Rate 250 g ai/ha) | Post-emerge Herbicidal Activity, phytotoxicity rating AMBEL ([9]; Rate 63 g ai/ha) | Post-emerge Herbicidal Activity, phytotoxicity rating AMARE ([10]; Rate 63 g ai/ha) | Post-emerge Herbicidal Activity, phytotoxicity rating AMARE ([10]; Rate 250 g ai/ha) | Post-emerge Herbicidal Activity, phytotoxicity rating CHEAL ([11]; Rate 63 g ai/ha) | Post-emerge Herbicidal Activity, phytotoxicity rating CASOB ([13]; Rate 63 g ai/ha) | Post-emerge Herbicidal Activity, phytotoxicity rating CASOB ([13]; Rate 250 g ai/ha) | Post-emerge phytotoxicity rating RICE (crop damage) ([14]; Rate 63 g ai/ha) | Post-emerge phytotoxicity rating RICE (crop damage) ([14]; Rate 250 g ai/ha) | Post-emerge phytotoxicity rating CORN (crop damage) ([15]; Rate 63 g ai/ha) | Post-emerge phytotoxicity rating CORN (crop damage) ([15]; Rate 250 g ai/ha) | phytotoxicity rating SETVI ([16]; 63 g ai/ha) | phytotoxicity rating SETVI ([16]; 250 g ai/ha) | phytotoxicity rating IPOHE ([17]; 63 g ai/ha) | phytotoxicity rating DIGSA ([19]; 63 g ai/ha) | phytotoxicity rating DIGSA ([19]; 250 g ai/ha) | phytotoxicity rating SORHA ([20]; 63 g ai/ha) | phytotoxicity rating SORHA ([20]; 250 g ai/ha) | phytotoxicity rating ECHCG ([22]; 63 g ai/ha) | phytotoxicity rating ECHCG ([22]; 250 g ai/ha) | phytotoxicity rating CASOB ([23]; 63 g ai/ha) | phytotoxicity rating CASOB ([23]; 250 g ai/ha)
90: phytotoxicity rating CHEAL ([21]; 63 g ai/ha)
30: Post-emerge Herbicidal Activity, phytotoxicity rating IPOHE ([5]; Rate 250 g ai/ha)
